# Legend:
# Assay type in all cases: in vivo, human
# [1] = Three-month pioglitazone administration to type II diabetes patients: body mass index and blood pressure; conditions: type II diabetes patients n=10, 30 mg/day orally, mean ± S.D.
# Excerpt: (§1) 10 male patients with type II diabetes (ages: 40 to 66, 57.7±7.4) either being only under diet therapy (n=7) or being under diet therapy and on medication of sulfonylurea (n=3) were subjected to inspection regarding the following parameters before and after a three-month administration of a thiazolidine derivative, pioglitazone. Body weights, blood glucose levels, and blood pressure levels of those patients and treatments for them were at constant levels for at least 3 months before the examination. The sulfonylurea doses for 3 patients were at constant levels during that period. Pioglitazone was administered to all 10 patients after breakfast every day (orally, 30 mg/day).
# (§2) The systolic blood pressure (SBP) and the diastolic blood pressure (DBP) were measured twice in a sitting position after an at least 5-minute recess. Body heights, weights, and levels of fasting plasma glucose (FPG), HbA1C, serum insulin, adiponectin, total cholesterol (TC), triglyceride (TG), HDL-cholesterol, LDL-cholesterol, and uric acid were measured in the morning after an overnight fast. Levels of plasma glucose, lipids, and uric acid were measured by a common automated measuring technique. The serum concentration of insulin was measured using a commercially available kit, EIA (Tosoh, Tokyo), as already described (Kawai, T. et al., Metabolism 48: 1102-1107, 1999; Hirose, H. et al., Clin. Sci. (Colch) 94: 633-636, 1998; Hirose, H. et al., J. Hypertens. 16: 2007-2012, 1998; Hirose, H. et al., Clin. Sci. (Colch) 100: 145-150, 2001). The insulin resistance index was evaluated by the Homeostasis model assessment (HOMA-IR) (Matthews, D. R. et al., Diabetologia 28: 412-419, 1985; Rudenski, A. S. et al., Metabolism 40: 908-917, 1991).
# [2] = Three-month pioglitazone administration to type II diabetes patients: fasting glucose, HbA1c, lipids, uric acid
# Excerpt: as §1, §2
# [3] = Three-month pioglitazone administration to type II diabetes patients: serum insulin (EIA) and HOMA-IR
# Excerpt: as §1, §2
# [4] = Assessment of body fat distribution by CT scan before and after three-month pioglitazone; conditions: type II diabetes patients n=10, 30 mg/day orally, mean ± S.D.
# Procedure: The patients who had been also employed in Example 1 were subjected to the assessment of body fat distribution before and after the three-month administration of pioglitazone. Distributions of subcutaneous fat and visceral fat were determined by assessing the region of a Hounsfield unit of −150 to −50 by a method modified from the computerized tomography (CT) scan at the level of the navel by Tokunaga et al. (Tokunaga, K. et al., Int. J. Obes. 7: 437-445, 1983). CT images at the baseline and after a three-month treatment were taken in accordance with the same protocols that had been previously reported by the present inventors (Kawai, T. et al., Metabolism, 48: 1102-1107, 1999). The V/S ratio was calculated by dividing the visceral fat area (VFA) by the subcutaneous fat area (SFA).
# [5] = tested on: adiponectin (GBP28); test: Serum GBP28 (adiponectin) by ELISA before and after three-month pioglitazone
# Procedure: The patients who had been employed in Example 1 were also subjected to an assay of the blood concentration of GBP28 before and after the three-month administration of pioglitazone.
# The anti-human GBP28 monoclonal antibody was prepared in the following manner. First, a solution of GBP28 (about 50 μg) isolated and purified from human serum was micellized with a complete adjuvant, and the resultant was administered to a mouse intraperitoneally. Two weeks later, the mouse was subjected to booster, the spleen was extirpated 3 days thereafter, and the B-cell was collected. The B-cell and the myeloma cell were allowed to fuse with each other to prepare hybridomas, and a hybridoma of interest was administered to a mouse intraperitoneally. Thereafter (20 days later), ascites was processed with DEAE-Sepharose Fast Flow, and the monoclonal antibody of interest was obtained.
# GBP28 was assayed by ELISA in the following manner. A standard GBP28 sample, a 441-fold-diluted unknown sample, and a control sample (100 μl each) were added to a 96-well microtiter plate coated with the mouse anti-GBP28 monoclonal antibody. The plate was incubated for 60 minutes, the well was washed, and incubation was carried out for additional 30 minutes with the horseradish peroxidase-labeled mouse anti-GBP28 monoclonal antibody. The plate was washed again, and incubation was carried out for 30 minutes with a tetramethylbenzidine reagent. Subsequently, 100 μl of aqueous solution of 0.36N sulfuric acid was added to each well to terminate the reaction, and the absorbance at 450 nm was assayed. Intra- and interassay coefficients were 4.8% to 4.9% and 3.3% to 6.8%, respectively.
# [6] = type II diabetes patients n=10, 30 mg/day orally, 3 months, mean ± S.D.
# [7] = type II diabetes patients n=10, 30 mg/day orally, logarithmic values, mean ± S.D.
# [8] = type II diabetes patients n=10, 30 mg/day orally, mean ± S.D.
# [9] = type II diabetes patients, three-month administration, given without sign
smiles,measurement,setting,value
CCc1ccc(CCOc2ccc(CC3SC(=O)NC3=O)cc2)nc1 (stereo not drawn) [pioglitazone],"Body Mass Index, after the three-month trace",[1]; 3 months,27.0 ± 3.5 kg/m^2
same,"Body Mass Index, rate of change in 3 months",[1],2.1 ± 2.2
same,"Body mass index at diastolic blood pressure, rate of change in 3 months",[1],−6.3 ± 6.9
same,"Body mass index at systolic blood pressure, rate of change in 3 months",[1],−7.0 ± 4.9
same,"Fasting blood glucose, after the three-month trace",[2]; [6],7.0 ± 1.0^ mmol/l
same,"HDL cholesterol, after the three-month trace",[2]; [6],52.1 ± 7.3 mg/dL
same,"HbA1c, after the three-month trace",[2]; [6],6.1 ± 0.6^ %
same,"LDL cholesterol, after the three-month trace",[2]; [6],138 ± 24 mg/dL
same,"Total cholesterol, after the three-month trace",[2]; [6],218 ± 35 mg/dL
same,"Triglyceride (log), after the three-month trace",[2]; [6],127 ± 2 mg/dl
same,"Uric acid, after the three-month trace",[2]; [6],5.6 ± 1.3^ mg/dl
same,"Triglyceride (log), rate of change in 3 months",[2]; [7],−1.0 ± 6.3
same,"Fasting blood glucose, rate of change in 3 months",[2]; [8],−18.2 ± 9.3
same,"HDL cholesterol, rate of change in 3 months",[2]; [8],2.0 ± 11.2
same,"HbA1c, rate of change in 3 months",[2]; [8],−9.0 ± 8.8
same,"LDL cholesterol, rate of change in 3 months",[2]; [8],12.3 ± 12.8
same,"Total cholesterol, rate of change in 3 months",[2]; [8],4.8 ± 10.9
same,"Uric acid, rate of change in 3 months",[2]; [8],−5.0 ± 9.5
same,Rate of change of HbA1C over three months,[2]; [9],9.0%
same,Rate of change of blood glucose over three months,[2]; [9],18.2%
same,"HOMA-IR (log), after the three-month trace",[3]; [6],1.6 ± 1.3^
same,"Serum insulin (log), after the three-month trace",[3]; [6],30 ± 8 pmmol/l
same,"HOMA-IR (log), rate of change in 3 months",[3]; [7],−62.6 ± 22.6
same,"Serum insulin (log), rate of change in 3 months",[3]; [7],−23.7 ± 13.5
same,Rate of change of HOMA-IR over three months,[3]; [9],62.6%
same,Rate of change of serum insulin over three months,[3]; [9],23.7%
same,"Subcutaneous Fat Area, after the three-month trace","[4]; 3 months, CT at navel level",179 ± 81 cm^2
same,"Visceral Fat Area, after the three-month trace","[4]; 3 months, CT at navel level",180 ± 46 cm^2
same,"V/S ratio, after the three-month trace","[4]; 3 months, VFA divided by SFA",1.1 ± 0.3
same,"Subcutaneous Fat Area, rate of changes in 3 months",[4],16.1 ± 18.7
same,"V/S ratio, rate of changes in 3 months",[4],−4.0 ± 11.2
same,"Visceral Fat Area, rate of changes in 3 months",[4],11.3 ± 21.3
same,"Elevation in serum adiponectin level, times higher than the baselines on average","[5]; 10 type II diabetes patients, three-month administration",3 times
same,"GBP28 (log), after the three-month trace","[5]; type II diabetes patients n=10, 30 mg/day orally, 3 months, serum, mean ± S.D.",14.4 ± 2.1 μg/l
same,"GBP28 (log), rate of change in 3 months",[5]; [7],80.9 ± 58^
same,Rate of change of concentration of GBP28 over three months,"[5]; type II diabetes patients, three-month administration",80.9%
